Data from patent publication US7902238B2, “2-aminooxazolines as TAAR1 ligands” (Hoffmann-La Roche Inc., priority 2007, dated 2011).

Legend:
TAAR1 = experiment: Calculated Kd of the radioligand used in the TAAR1 binding assay; settings: species not stated
Protocol: Each experiment was performed in duplicate.

rat TAAR1 = rat TAAR1 (Rattus norvegicus, UniProt Q923Y9); experiment: Radioligand binding on membranes of HEK293 cells stably expressing rat TAAR1
mouse TAAR1 = mouse TAAR1 (Mus musculus, UniProt Q923Y8); experiment: Radioligand binding on membranes of HEK293 cells stably expressing mouse TAAR1
Sequence of mouse TAAR1 (Q923Y8 whole entry): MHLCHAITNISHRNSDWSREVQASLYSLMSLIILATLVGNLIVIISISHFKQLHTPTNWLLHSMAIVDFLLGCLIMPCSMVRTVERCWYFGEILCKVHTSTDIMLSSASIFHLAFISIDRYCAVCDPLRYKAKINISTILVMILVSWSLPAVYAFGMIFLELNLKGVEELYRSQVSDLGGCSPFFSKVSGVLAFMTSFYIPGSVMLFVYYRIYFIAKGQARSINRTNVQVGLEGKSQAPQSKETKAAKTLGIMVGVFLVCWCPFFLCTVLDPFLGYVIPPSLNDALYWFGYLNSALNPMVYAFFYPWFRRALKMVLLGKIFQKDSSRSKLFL

Sequence of rat TAAR1 (Q923Y9 whole entry): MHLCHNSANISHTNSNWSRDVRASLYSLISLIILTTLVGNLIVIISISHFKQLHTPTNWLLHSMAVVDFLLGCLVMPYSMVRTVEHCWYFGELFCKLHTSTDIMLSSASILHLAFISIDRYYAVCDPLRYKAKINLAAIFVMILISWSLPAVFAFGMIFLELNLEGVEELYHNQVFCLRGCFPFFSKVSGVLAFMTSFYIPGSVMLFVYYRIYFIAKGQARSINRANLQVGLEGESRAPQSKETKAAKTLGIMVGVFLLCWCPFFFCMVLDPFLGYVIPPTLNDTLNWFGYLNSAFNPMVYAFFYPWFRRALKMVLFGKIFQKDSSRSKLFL

c1ccc2c(c1)CCCC2C1=NCCN1 (racemic)
Kd (TAAR1): 60 nM

COc1cc(N(C)C[C@@H]2COC(N)=N2)ccc1F [Example 138, (R)-4-{[(4-Fluoro-3-methoxy-phenyl)-methyl-amino]-methyl}-4,5-dihydro-oxazol-2-ylamine]
Ki (rat TAAR1): 9.3 nM
Ki (mouse TAAR1): 4.4 nM

CCN(C[C@@H]1COC(N)=N1)c1ccc(F)c(OC)c1 [Example 139, (R)-4-{[Ethyl-(4-fluoro-3-methoxy-phenyl)-amino]-methyl}-4,5-dihydro-oxazol-2-ylamine]
Ki (rat TAAR1): 1.6 nM
Ki (mouse TAAR1): 4.1 nM

COc1cc(N(C)C[C@@H]2COC(N)=N2)ccc1Cl [Example 140, (R)-4-{[(4-Chloro-3-methoxy-phenyl)-methyl-amino]-methyl}-4,5-dihydro-oxazol-2-ylamine]
Ki (rat TAAR1): 4.1 nM
Ki (mouse TAAR1): 2.6 nM

CCN(C[C@@H]1COC(N)=N1)c1ccc(Cl)c(OC)c1 [Example 141, (R)-4-{[(4-Chloro-3-methoxy-phenyl)-ethyl-amino]-methyl}-4,5-dihydro-oxazol-2-ylamine]
Ki (rat TAAR1): 0.9 nM
Ki (mouse TAAR1): 3.4 nM

CCN(C[C@H]1COC(N)=N1)c1ccc(F)cc1F [Example 145, (S)-4-{[(2,4-Difluoro-phenyl)-ethyl-amino]-methyl}-4,5-dihydro-oxazol-2-ylamine]
Ki (rat TAAR1): 4.8 nM
Ki (mouse TAAR1): 8.2 nM

CN(C[C@H]1COC(N)=N1)c1ccc(F)cc1F [Example 146, (S)-4-{[(2,4-Difluoro-phenyl)-methyl-amino]-methyl}-4,5-dihydro-oxazol-2-ylamine]
Ki (rat TAAR1): 6.2 nM
Ki (mouse TAAR1): 3.1 nM

NC1=N[C@@H](CNc2ccc(F)cc2F)CO1 [Example 152, (S)-4-[(2,4-Difluoro-phenylamino)-methyl]-4,5-dihydro-oxazol-2-ylamine]
Ki (rat TAAR1): 7.2 nM
Ki (mouse TAAR1): 3.2 nM

CN(C[C@@H]1COC(N)=N1)c1ccc(Cl)c(Cl)c1 [Example 157, (R)-4-{[(3,4-Dichloro-phenyl)-methyl-amino]-methyl}-4,5-dihydro-oxazol-2-ylamine]
Ki (rat TAAR1): 2.1 nM
Ki (mouse TAAR1): 1.7 nM

CCN(C[C@@H]1COC(N)=N1)c1ccc(Cl)c(Cl)c1 [Example 158, (R)-4-{[(3,4-Dichloro-phenyl)-ethyl-amino]-methyl}-4,5-dihydro-oxazol-2-ylamine]
Ki (rat TAAR1): 0.4 nM
Ki (mouse TAAR1): 2.2 nM

CC(C)N(C[C@@H]1COC(N)=N1)c1ccc(Cl)c(Cl)c1 [Example 159, (R)-4-{[(3,4-Dichloro-phenyl)-isopropyl-amino]-methyl}-4,5-dihydro-oxazol-2-ylamine]
Ki (rat TAAR1): 1.4 nM
Ki (mouse TAAR1): 5.3 nM

CN(C[C@H]1COC(N)=N1)c1cc(Cl)cc(Cl)c1 [Example 160, (S)-4-{[(3,5-Dichloro-phenyl)-methyl-amino]-methyl}-4,5-dihydro-oxazol-2-ylamine]
Ki (rat TAAR1): 0.9 nM
Ki (mouse TAAR1): 1.3 nM

CN(C[C@@H]1COC(N)=N1)c1ccc2ccccc2c1 [Example 162, (R)-4-[(Methyl-naphthalen-2-yl-amino)-methyl]-4,5-dihydro-oxazol-2-ylamine]
Ki (rat TAAR1): 15.5 nM
Ki (mouse TAAR1): 7.7 nM

CCN(C[C@@H]1COC(N)=N1)c1ccc2ccccc2c1 [Example 163, (R)-4-[(Ethyl-naphthalen-2-yl-amino)-methyl]-4,5-dihydro-oxazol-2-ylamine]
Ki (rat TAAR1): 5.2 nM
Ki (mouse TAAR1): 2.9 nM

CCN(C[C@H]1COC(N)=N1)c1cc(Cl)cc(Cl)c1 [Example 165, (S)-4-{[(3,5-Dichloro-phenyl)-ethyl-amino]-methyl}-4,5-dihydro-oxazol-2-ylamine]
Ki (rat TAAR1): 0.9 nM
Ki (mouse TAAR1): 1.4 nM

CCN(C[C@@H]1COC(N)=N1)c1cc(F)cc(C(F)(F)F)c1 [Example 167, (R)-4-{[Ethyl-(3-fluoro-5-trifluoromethyl-phenyl)-amino]-methyl}-4,5-dihydro-oxazol-2-ylamine]
Ki (rat TAAR1): 9.7 nM
Ki (mouse TAAR1): 5.1 nM

CCN(C[C@H]1COC(N)=N1)c1ccc(C(F)(F)F)cc1C [Example 175, (S)-4-{[Ethyl-(2-methyl-4-trifluoromethyl-phenyl)-amino]-methyl}-4,5-dihydro-oxazol-2-ylamine]
Ki (rat TAAR1): 8.3 nM
Ki (mouse TAAR1): 9.2 nM
